In ChEMBL document CHEMBL5532675, “Discovery of 4-Ethoxy-6-chloro-5-azaindazoles as Novel PDE4 Inhibitors for the Treatment of Alcohol Use Disorder and Alcoholic Liver Diseases” (J Med Chem, 2024):
Calls of active or inactive are those of the source. No cut-off for these calls is given here.

Columns and labels:
[1] = target: T1, 3',5'-cyclic-AMP phosphodiesterase 4D (Homo sapiens, UniProt Q08499); experiment: Inhibition of PDE4D7 (unknown origin) using FAM-cyclic-3',5'-AMP as substrate at 1 microM incubated for 1 hrs by fluorescence polarization based IMAP assay relative to control
[2] = target: T1, 3',5'-cyclic-AMP phosphodiesterase 4D; experiment: Inhibition of PDE4D7 (unknown origin) using FAM-cyclic-3',5'-AMP as substrate at 100 nM incubated for 1 hrs by fluorescence polarization based IMAP assay relative to control
[3] = Toxicity in ketamine/xylazine-induced anesthetic C57BL/6J mouse model assessed as emetogenic potential by measuring reduction in anesthesia duration at 0.5 to 1 mg/kg, po preadministered with compound for 15 mins followed by ketamine/xylazine administration; assay type: organism-based; details: in vivo, 0.25 h, dose 0.5-1 mg/kg
Mus musculus [4] = experiment: Protection against alcohol use disorder in C57BL/6J mouse model assessed as decrease in alcohol intake at 1 mg/kg, po pre-trained with alcohol and water for 42 days with subsequent compound addition on day 22 and measured after 3 weeks by two-bottle choice test; assay type: functional, organism-based
Mus musculus [5] = experiment: Protection against alcohol use disorder in C57BL/6J mouse model assessed as decrease in alcohol preference at 1 mg/kg, po pre-trained with alcohol and water for 42 days with subsequent compound addition on day 22 and measured after 3 weeks by two-bottle choice test; assay type: functional, organism-based
Mus musculus [6] = experiment: Protection against alcohol use disorder in C57BL/6J mouse model assessed as decrease in alcohol intake at 1 mg/kg, po pre-trained with alcohol and water for 42 days with subsequent compound addition from day 22 to day 42 followed by 3.5 hrs of darkness and compound administration for 30 mins followed by water replacement with alcohol for 4 hrs on day 46 by Drink-in-Dark test; assay type: functional, organism-based; details: time 23.0 day
Mus musculus [7] = experiment: Protection against alcohol exposure-induced anxiety like behavior in C57BL/6J mouse model assessed as distance travelled at 1 mg/kg, po pre-trained with alcohol and water for 42 days with subsequent compound addition from day 22 to day 42 followed by 3.5 hrs of darkness and compound administration for 30 mins followed by water replacement with alcohol for 4 hrs and measured 24 hrs after alcohol withdrawal by open field test; assay type: functional, organism-based
Mus musculus [8] = experiment: Protection against alcohol exposure-induced anxiety like behavior in C57BL/6J mouse model assessed as increase in center time at 1 mg/kg, po pre-trained with alcohol and water for 42 days with subsequent compound addition from day 22 to day 42 followed by 3.5 hrs of darkness and compound administration for 30 mins followed by water replacement with alcohol for 4 hrs and measured 24 hrs after alcohol withdrawal by open field test; assay type: functional, organism-based
Mus musculus [9] = experiment: Protection against alcohol-induced sedation in C57BL/6J mouse model assessed as reduction in sleep time at 1 mg/kg, po preadministered with compound every 24 hrs for 3 times followed by alcohol administration 30 mins post last dose; assay type: functional, organism-based; details: time 72.5 hrs
Mus musculus [10] = experiment: Protection against alcohol-induced motor impairment in C57BL/6J mouse model assessed as short recovery time by measuring latency to falling off at 1 mg/kg, po preadministered with compound every 24 hrs for 3 times followed by alcohol administration 30 mins post last dose and further treated with compound for 3 days followed by alcohol administration 30 mins post last dose and measured at 2 to 20 mins by rotarod test; assay type: functional, organism-based; details: time 8702-8720 min
Mus musculus [11] = experiment: Protection against alcohol-induced motor impairment in C57BL/6J mouse model assessed as increase in distance travelled at 1 mg/kg, po preadministered with compound every 24 hrs for 3 times followed by alcohol administration 30 mins post last dose and further treated with compound for 3 days followed by alcohol administration 30 mins post last dose and measured at 2 to 20 mins by open field test; assay type: functional, organism-based; details: time 8702-8720 min
Mus musculus [12] = experiment: Protection against alcohol-induced motor impairment in C57BL/6J mouse model assessed as recovery of average speed at 1 mg/kg, po preadministered with compound every 24 hrs for 3 times followed by alcohol administration 30 mins post last dose and further treated with compound for 3 days followed by alcohol administration 30 mins post last dose and measured at 2 to 20 mins by open field test; assay type: functional, organism-based; details: time 8702-8720 min
Mus musculus [13] = experiment: Protection against alcohol-induced motor impairment in C57BL/6J mouse model assessed as decrease in resting time at 1 mg/kg, po preadministered with compound every 24 hrs for 3 times followed by alcohol administration 30 mins post last dose and further treated with compound for 3 days followed by alcohol administration 30 mins post last dose and measured at 2 to 20 mins by open field test; assay type: functional, organism-based; details: time 8702-8720 min
Mus musculus [14] = experiment: Protection against alcoholic liver disease in NIAAA C57BL/6J mouse model assessed as decrease in liver index at 1 mg/kg, po preadministered with 1 to 4 % of alcohol for 10 days with subsequent compound addition from day 6 to 11 and further administered with 31.25 % alcohol on day 11 and measured after 9 hrs; assay type: functional, organism-based; details: time 5.0 day
Mus musculus [15] = experiment: Protection against alcoholic liver disease in NIAAA C57BL/6J mouse model assessed as decrease in serum ALT level at 1 mg/kg, po preadministered with 1 to 4 % of alcohol for 10 days with subsequent compound addition from day 6 to 11 and further administered with 31.25 % alcohol on day 11 and measured after 9 hrs by absorbance based plate analyzer; assay type: functional, organism-based; details: time 5.0 day
Mus musculus [16] = experiment: Protection against alcoholic liver disease in NIAAA C57BL/6J mouse model assessed as decrease in serum AST level at 1 mg/kg, po preadministered with 1 to 4 % of alcohol for 10 days with subsequent compound addition from day 6 to 11 and further administered with 31.25 % alcohol on day 11 and measured after 9 hrs by absorbance based plate analyzer; assay type: functional, organism-based; details: time 5.0 day
Mus musculus [17] = experiment: Protection against alcoholic liver disease in NIAAA C57BL/6J mouse model assessed as improvement of liver injury at 1 mg/kg, po preadministered with 1 to 4 % of alcohol for 10 days with subsequent compound addition from day 6 to 11 and further administered with 31.25 % alcohol on day 11 and measured after 9 hrs by H&E staining based light microscopic analysis; assay type: functional, organism-based; details: time 5.0 day
Mus musculus [18] = experiment: Protection against alcoholic liver disease in NIAAA C57BL/6J mouse model assessed as improvement of steatosis at 1 mg/kg, po preadministered with 1 to 4 % of alcohol for 10 days with subsequent compound addition from day 6 to 11 and further administered with 31.25 % alcohol on day 11 and measured after 9 hrs by H&E staining based light microscopic analysis; assay type: functional, organism-based; details: time 5.0 day
Mus musculus [19] = experiment: Protection against alcoholic liver disease in NIAAA C57BL/6J mouse model assessed as improvement of liver injury at 1 mg/kg, po preadministered with 1 to 4 % of alcohol for 10 days with subsequent compound addition from day 6 to 11 and further administered with 31.25 % alcohol on day 11 and measured after 9 hrs by Oil Red O staining based light microscopic analysis; assay type: functional, organism-based; details: time 5.0 day
Mus musculus [20] = experiment: Protection against alcoholic liver disease in NIAAA C57BL/6J mouse model assessed as improvement of steatosis at 1 mg/kg, po preadministered with 1 to 4 % of alcohol for 10 days with subsequent compound addition from day 6 to 11 and further administered with 31.25 % alcohol on day 11 and measured after 9 hrs by Oil Red O staining based light microscopic analysis; assay type: functional, organism-based; details: time 5.0 day
Mus musculus [21] = experiment: Protection against alcoholic liver disease in NIAAA C57BL/6J mouse model assessed as reduction in serum IL-6 level at 1 mg/kg, po preadministered with 1 to 4 % of alcohol for 10 days with subsequent compound addition from day 6 to 11 and further administered with 31.25 % alcohol on day 11 and measured after 9 hrs by ELISA; assay type: functional, organism-based; details: time 5.0 day
Mus musculus [22] = experiment: Protection against alcoholic liver disease in NIAAA C57BL/6J mouse model assessed as reduction in serum TNF-alpha level at 1 mg/kg, po preadministered with 1 to 4 % of alcohol for 10 days with subsequent compound addition from day 6 to 11 and further administered with 31.25 % alcohol on day 11 and measured after 9 hrs by ELISA; assay type: functional, organism-based; details: time 5.0 day
Mus musculus [23] = experiment: Protection against alcoholic liver disease in NIAAA C57BL/6J mouse model assessed as reduction in liver TNF-alpha mRNA level at 1 mg/kg, po preadministered with 1 to 4 % of alcohol for 10 days with subsequent compound addition from day 6 to 11 and further administered with 31.25 % alcohol on day 11 and measured after 9 hrs by RT-qPCR analysis; assay type: functional, organism-based; details: time 5.0 day
Mus musculus [24] = experiment: Protection against alcoholic liver disease in NIAAA C57BL/6J mouse model assessed as reduction in liver IL-6 mRNA level at 1 mg/kg, po preadministered with 1 to 4 % of alcohol for 10 days with subsequent compound addition from day 6 to 11 and further administered with 31.25 % alcohol on day 11 and measured after 9 hrs by RT-qPCR analysis; assay type: functional, organism-based; details: time 5.0 day
Mus musculus [25] = experiment: Protection against alcoholic liver disease in NIAAA C57BL/6J mouse model assessed as reduction in liver IL-1beta mRNA level at 1 mg/kg, po preadministered with 1 to 4 % of alcohol for 10 days with subsequent compound addition from day 6 to 11 and further administered with 31.25 % alcohol on day 11 and measured after 9 hrs by RT-qPCR analysis; assay type: functional, organism-based; details: time 5.0 day

T1 sequence (Q08499 whole entry): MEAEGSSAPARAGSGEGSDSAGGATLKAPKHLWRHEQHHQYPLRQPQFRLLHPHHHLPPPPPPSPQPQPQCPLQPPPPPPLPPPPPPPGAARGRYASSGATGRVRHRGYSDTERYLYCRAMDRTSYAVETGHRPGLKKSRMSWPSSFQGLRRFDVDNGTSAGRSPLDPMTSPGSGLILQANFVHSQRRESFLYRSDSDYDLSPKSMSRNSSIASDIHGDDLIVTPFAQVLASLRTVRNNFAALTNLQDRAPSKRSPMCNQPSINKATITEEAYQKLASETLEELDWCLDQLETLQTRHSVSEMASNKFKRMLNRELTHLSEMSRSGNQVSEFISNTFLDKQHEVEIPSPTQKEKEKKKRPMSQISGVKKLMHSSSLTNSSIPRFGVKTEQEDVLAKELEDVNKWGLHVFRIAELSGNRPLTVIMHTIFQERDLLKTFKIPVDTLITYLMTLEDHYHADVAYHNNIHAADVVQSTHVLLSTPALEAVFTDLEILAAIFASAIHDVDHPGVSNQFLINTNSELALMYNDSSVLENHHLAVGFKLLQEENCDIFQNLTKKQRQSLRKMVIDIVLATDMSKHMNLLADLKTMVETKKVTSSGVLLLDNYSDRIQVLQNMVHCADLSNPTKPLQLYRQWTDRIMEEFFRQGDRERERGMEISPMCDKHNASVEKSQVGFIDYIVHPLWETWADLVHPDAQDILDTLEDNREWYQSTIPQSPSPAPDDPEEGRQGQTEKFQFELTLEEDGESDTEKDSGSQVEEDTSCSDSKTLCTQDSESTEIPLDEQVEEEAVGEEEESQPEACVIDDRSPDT

## COc1ccc(C2CNC(=O)C2)cc1OC1CCCC1 (stereo not given) [ROLIPRAM]
[1]
  inhibition: 72%
[2]
  inhibition: 34%
[3]
  Activity: Toxic
Mus musculus [4]
  Activity: Active
Mus musculus [5]
  Activity: Active
Mus musculus [6]
  Activity: Active
Mus musculus [7]
  Activity: Active
Mus musculus [8]
  Activity: Active
Mus musculus [9]
  Activity: inactive
Mus musculus [10]
  Activity: inactive
Mus musculus [11]
  Activity: Active
Mus musculus [12]
  Activity: Active
Mus musculus [13]
  Activity: Active
Mus musculus [14]
  Activity: Active
Mus musculus [15]
  Activity: Active
Mus musculus [16]
  Activity: Active
Mus musculus [17]
  Activity: Active
Mus musculus [18]
  Activity: Active
Mus musculus [19]
  Activity: Active
Mus musculus [20]
  Activity: Active
Mus musculus [21]
  Activity: Active
Mus musculus [22]
  Activity: Active
Mus musculus [23]
  Activity: Active
Mus musculus [24]
  Activity: Active
Mus musculus [25]
  Activity: Active
